Data from patent US20150094474A1, “AGRICULTURAL CHEMICALS” (Redx Pharma Ltd., priority 2012, published 2015).

System: peas
Experiment: Herbicidal bioassay, peas (% necrosis)
Assay type: in vivo
Method in brief: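 Scoring of % necrosis followed EPPO guideline PP1/135 at specified growth intervals, five replicates per species and treatment. Plants at the 2-4 true leaf stage received Potter-tower sprays of DMSO-diluted compounds across six levels from 0.0001% to 0.05%, with water and DMSO controls.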

What does the source list for CCOC(=O)C(C)Oc1ccc(Oc2ccc(C(F)(F)F)cn2)cc1 (stereo not drawn) [Fluazifop Ethyl ester (62)]?
Sum of % necrosis in Peas (Dose 0.000001, Day 0): C (less than 50% necrosis); Sum of % necrosis in Peas (Dose 0.000001, Day 1): C (less than 50% necrosis); Sum of % necrosis in Peas (Dose 0.000001, Day 3): C (less than 50% necrosis); Sum of % necrosis in Peas (Dose 0.000001, Day 7): C (less than 50% necrosis); Sum of % necrosis in Peas (Dose 0.000001, Day 10): C (less than 50% necrosis); Sum of % necrosis in Peas (Dose 0.000001, Day 14): C (less than 50% necrosis); Sum of % necrosis in Peas (Dose 0.000001, Day 21): C (less than 50% necrosis); Sum of % necrosis in Peas (Dose 0.000005, Day 0): C (less than 50% necrosis); Sum of % necrosis in Peas (Dose 0.000005, Day 1): C (less than 50% necrosis); Sum of % necrosis in Peas (Dose 0.000005, Day 3): C (less than 50% necrosis); Sum of % necrosis in Peas (Dose 0.000005, Day 7): C (less than 50% necrosis); Sum of % necrosis in Peas (Dose 0.000005, Day 10): C (less than 50% necrosis); Sum of % necrosis in Peas (Dose 0.000005, Day 14): B (50%-80% necrosis); Sum of % necrosis in Peas (Dose 0.000005, Day 21): B (50%-80% necrosis); Sum of % necrosis in Peas (Dose 0.00001, Day 0): C (less than 50% necrosis); Sum of % necrosis in Peas (Dose 0.00001, Day 1): C (less than 50% necrosis); Sum of % necrosis in Peas (Dose 0.00001, Day 3): C (less than 50% necrosis); Sum of % necrosis in Peas (Dose 0.00001, Day 7): C (less than 50% necrosis); Sum of % necrosis in Peas (Dose 0.00001, Day 10): B (50%-80% necrosis); Sum of % necrosis in Peas (Dose 0.00001, Day 14): A (over 80% necrosis); Sum of % necrosis in Peas (Dose 0.00001, Day 21): A (over 80% necrosis); Sum of % necrosis in Peas (Dose 0.00005, Day 0): C (less than 50% necrosis); Sum of % necrosis in Peas (Dose 0.00005, Day 1): C (less than 50% necrosis); Sum of % necrosis in Peas (Dose 0.00005, Day 3): C (less than 50% necrosis); Sum of % necrosis in Peas (Dose 0.00005, Day 7): C (less than 50% necrosis); Sum of % necrosis in Peas (Dose 0.00005, Day 10): B (50%-80% necrosis); Sum of % necrosis in Peas (Dose 0.00005, Day 14): A (over 80% necrosis); Sum of % necrosis in Peas (Dose 0.00005, Day 21): A (over 80% necrosis); Sum of % necrosis in Peas (Dose 0.0001, Day 0): C (less than 50% necrosis); Sum of % necrosis in Peas (Dose 0.0001, Day 1): C (less than 50% necrosis); Sum of % necrosis in Peas (Dose 0.0001, Day 3): C (less than 50% necrosis); Sum of % necrosis in Peas (Dose 0.0001, Day 7): C (less than 50% necrosis); Sum of % necrosis in Peas (Dose 0.0001, Day 10): B (50%-80% necrosis); Sum of % necrosis in Peas (Dose 0.0001, Day 14): A (over 80% necrosis); Sum of % necrosis in Peas (Dose 0.0001, Day 21): A (over 80% necrosis); Sum of % necrosis in Peas (Dose 0.0005, Day 0): C (less than 50% necrosis); Sum of % necrosis in Peas (Dose 0.0005, Day 1): C (less than 50% necrosis); Sum of % necrosis in Peas (Dose 0.0005, Day 3): C (less than 50% necrosis); Sum of % necrosis in Peas (Dose 0.0005, Day 7): C (less than 50% necrosis); Sum of % necrosis in Peas (Dose 0.0005, Day 10): C (less than 50% necrosis); Sum of % necrosis in Peas (Dose 0.0005, Day 14): C (less than 50% necrosis); Sum of % necrosis in Peas (Dose 0.0005, Day 21): A (over 80% necrosis)
